In patent US5939583A, “Substituted 4-biphenyl-4-hydroxybutyric acid derivatives as matrix metalloprotease inhibitors” (Bayer Corporation, priority 1997, dated 1999):

How the values were obtained:
[1] = target: T1, Human recombinant gelatinase B (MMP-9) (Homo sapiens, UniProt P14780); type: biochemical; details: P218 6 μM, pH 6.5, 25 min, 37° C.
T1 construct: made in house; host or cells: baculovirus protein expression system
Source text: P218 Fluorogenic Substrate
(§1) MMP Microfluorometric Profiling Assay.

[2] = target: T2, Human Recombinant gelatinase A (MMP-2) (Homo sapiens, UniProt P08253); type: biochemical; details: P218 6 μM, pH 6.5, 25 min, 37° C.
T2 sequence (P08253 110-660): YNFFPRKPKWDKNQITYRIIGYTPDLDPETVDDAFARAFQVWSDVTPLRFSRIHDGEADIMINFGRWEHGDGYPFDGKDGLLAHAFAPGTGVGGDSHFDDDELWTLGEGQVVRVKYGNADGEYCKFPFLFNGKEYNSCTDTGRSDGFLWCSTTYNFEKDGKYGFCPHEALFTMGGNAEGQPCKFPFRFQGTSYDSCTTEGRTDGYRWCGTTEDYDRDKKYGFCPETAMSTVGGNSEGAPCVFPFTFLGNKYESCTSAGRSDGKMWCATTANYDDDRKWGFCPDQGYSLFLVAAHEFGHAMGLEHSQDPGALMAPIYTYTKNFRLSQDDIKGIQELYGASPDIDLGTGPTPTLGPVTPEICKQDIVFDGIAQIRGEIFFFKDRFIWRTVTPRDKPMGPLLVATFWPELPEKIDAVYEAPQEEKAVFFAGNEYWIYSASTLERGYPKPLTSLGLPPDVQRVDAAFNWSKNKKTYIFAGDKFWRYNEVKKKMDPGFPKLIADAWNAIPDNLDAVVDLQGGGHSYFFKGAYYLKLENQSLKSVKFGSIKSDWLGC

[3] = target: T3, Recombinant Human CHO Stromelysin (MMP-3) (Homo sapiens, UniProt P08254); type: biochemical; details: P218 6 μM, pH 6.5, 25 min, 37° C.
T3 construct: made in house; host or cells: CHO
Source text: The reaction was stopped by addition of soybean trypsin inhibitor (SBTI; 5:1 w/w to trypsin concentration).
as §1

MMP-3 = details: WO 9615096 examples; cited from earlier work
[4] = Stability of hydroxy acids as solids and in aged solutions (spontaneous lactonization); type: physicochemical; details: for stability as solids: purified crystalline hydroxy acids
Source text: This was evidenced by the chemical shift of H-4 on the 4S lactone at δ5.40 ppm and that on the 4R lactone at δ5.65 ppm. The hydroxy acid that converted to the 2S, 4R lactone was thus identified as the 2S, 4R hydroxy acid (Example 1) and that which converted to the 2S, 4S lactone was identified as the 2S, 4S hydroxy acid (Example 2).

[5] = system: human ovarian carcinoma xenografts; details: mice bearing human ovarian carcinoma xenografts; cited from earlier work

T3 sequence (P08254 100-477): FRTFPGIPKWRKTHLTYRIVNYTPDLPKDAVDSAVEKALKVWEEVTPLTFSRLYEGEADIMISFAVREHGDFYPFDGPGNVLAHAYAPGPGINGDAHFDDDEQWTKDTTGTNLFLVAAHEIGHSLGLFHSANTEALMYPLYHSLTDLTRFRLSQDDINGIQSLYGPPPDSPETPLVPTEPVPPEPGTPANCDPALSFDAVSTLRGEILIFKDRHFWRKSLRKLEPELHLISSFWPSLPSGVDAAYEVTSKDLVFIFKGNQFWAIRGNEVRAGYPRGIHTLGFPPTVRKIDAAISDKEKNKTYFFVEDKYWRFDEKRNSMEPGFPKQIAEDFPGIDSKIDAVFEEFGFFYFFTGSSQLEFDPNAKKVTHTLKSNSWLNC
T1 sequence (P14780 107-707 limits assumed): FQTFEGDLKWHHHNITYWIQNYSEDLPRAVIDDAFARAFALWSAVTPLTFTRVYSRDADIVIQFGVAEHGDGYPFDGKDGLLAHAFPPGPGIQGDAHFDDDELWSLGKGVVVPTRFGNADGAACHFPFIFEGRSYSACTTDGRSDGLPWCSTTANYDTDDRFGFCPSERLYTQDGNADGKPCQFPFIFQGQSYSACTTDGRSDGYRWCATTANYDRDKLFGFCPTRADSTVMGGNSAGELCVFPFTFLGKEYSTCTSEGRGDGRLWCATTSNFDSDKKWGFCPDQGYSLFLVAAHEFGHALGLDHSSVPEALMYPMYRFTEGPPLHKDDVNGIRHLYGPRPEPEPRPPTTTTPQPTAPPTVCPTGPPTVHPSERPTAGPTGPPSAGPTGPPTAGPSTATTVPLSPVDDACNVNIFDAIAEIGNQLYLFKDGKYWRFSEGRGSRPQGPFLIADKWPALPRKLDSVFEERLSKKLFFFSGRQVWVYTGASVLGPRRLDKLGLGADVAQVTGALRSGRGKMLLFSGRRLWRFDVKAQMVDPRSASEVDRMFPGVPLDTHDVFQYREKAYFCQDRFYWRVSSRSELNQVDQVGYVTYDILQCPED

| Structure (SMILES) | IC50 [1] [nM] | IC50 [2] [nM] | IC50 [3] [nM] | also measured |
| --- | --- | --- | --- | --- |
| O=C(C[C@H](CSc1ccccc1)C(=O)O)c1ccc(-c2ccc(Cl)cc2)cc1 | 492 | 20 | – | – |
| O=C(C[C@H](CSc1ccc(O)cc1)C(=O)O)c1ccc(-c2ccc(Cl)cc2)cc1 | 115 | 3 | 155 | – |
| O=C(C[C@H](CCCc1ccccc1)C(=O)O)c1ccc(-c2ccc(Cl)cc2)cc1 | 209 | 34 | 108 | – |
| CC(C)CC(CC(O)c1ccc(-c2ccc(Cl)cc2)cc1)C(=O)O (single isomer, unassigned) [Example 33] | – | – | – | potency as MMP-3 inhibitors relative to corresponding 4-biphenyl-4-oxobutyric acid derivatives (MMP-3): less potent |
| CC(C)CC(CC(O)c1ccc(-c2ccc(Cl)cc2)cc1)C(=O)O (single isomer, unassigned) [Example 34] | – | – | – | potency as MMP-3 inhibitors relative to corresponding 4-biphenyl-4-oxobutyric acid derivatives (MMP-3): less potent |
| O=C(O)[C@@H](CCCc1ccccc1)CC(O)c1ccc(-c2ccc(Cl)cc2)cc1 (single isomer, unassigned) [drawing 38] | 82 | 9.4 | 50 | – |
| O=C(O)[C@@H](CCCc1ccccc1)CC(O)c1ccc(-c2ccc(Cl)cc2)cc1 (single isomer, unassigned) [drawing 39] | 369 | 46 | 1200 | – |
| O=C(O)[C@@H](CSc1ccccc1)C[C@@H](O)c1ccc(-c2ccc(Cl)cc2)cc1 [Example 1, [2S, 4R]-4-[4-(4-chlorophenyl)phenyl]-4R-hydroxy-2-(phenylthiomethyl)butanoic acid] | – | – | – | spontaneous lactonization in aged solutions [4]: slowly showed one or other of the lactones as a result of spontaneous lactonization; stability as solids [4]: relatively stable as solids |
| O=C(O)[C@@H](CSc1ccccc1)C[C@H](O)c1ccc(-c2ccc(Cl)cc2)cc1 [Example 2, [2S, 4S]-4-[4-(4-chlorophenyl)phenyl]-4-hydroxy-2-(phenylthiomethyl)butanoic acid] | – | – | – | spontaneous lactonization in aged solutions [4]: slowly showed one or other of the lactones as a result of spontaneous lactonization; stability as solids [4]: relatively stable as solids |
| CNC(=O)[C@H](Cc1ccccc1)NC(=O)[C@H](CC(C)C)[C@H](CSc1cccs1)C(=O)NO [batimastat] | – | – | – | survival [5]: prolongs the survival |
| O=C(O)[C@@H](CSc1ccccc1)C[C@@H](O)c1ccc(-c2ccc(Cl)cc2)cc1 [drawing 35] | 58 | 2.8 | 34 | – |
| O=C(O)[C@@H](CSc1ccccc1)C[C@H](O)c1ccc(-c2ccc(Cl)cc2)cc1 [drawing 36] | 890 | 62 | 1550 | – |
